Measured values from ChEMBL document CHEMBL3137667, “[Drug-induced liver injury; fourteenth updated edition of the bibliographic database of liver injuries and related drugs]” (Gastroenterol Clin Biol, 2004).

Assays:
[1] = human
[2] = human; remark: listed apart in the source
[3] = human, serum, 4383 h
[4] = human; remark: listed apart in the source
[5] = human; remark: listed apart in the source
[6] = human; remark: listed apart in the source
[7] = Highest frequency of acute liver toxicity observed during clinical trials, expressed as a percentage. [column '% AIGUE' in source]; details: human
[8] = Highest frequency of moderate liver toxicity observed during clinical trials, expressed as a percentage. [column '% BIOL' in source]; details: human
[9] = human, serum
[10] = human; remark: listed apart in the source
[11] = human; remark: listed apart in the source
[12] = human; remark: listed apart in the source
[13] = human, serum; remark: listed apart in the source
[14] = human; remark: listed apart in the source
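Wherever Hepatotoxicity (association with vascular disease) is given: count of indexed literature references reporting vascular liver injury in humans, e.g. peliosis hepatitis, hepatic veno-occlusive disease or Budd-Chiari syndrome.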
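Wherever Hepatotoxicity (benign tumour) is given: value is a count of indexed literature references citing a benign tumour confirmed by histopathology.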
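Wherever Hepatotoxicity (choleostasis) is given: human cholestatic liver injury, shown by histopathology or by peak ALT or AST elevation over alkaline phosphatase ratio below 2, value counts indexed literature reports.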
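Wherever Hepatotoxicity (chronic liver disease) is given: chronic liver injury confirmed by histopathology or persistently raised serum aminotransferase activity beyond 6 months, value given as the count of indexed literature references.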
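Wherever Hepatotoxicity (cirrhosis) is given: value is a count of indexed literature references reporting cirrhosis confirmed by histopathology.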
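Wherever Hepatotoxicity (cytolytic) is given: human cytolytic liver injury, shown by histopathology or by a ratio above 5 of peak ALT or AST elevation to alkaline phosphatase elevation, value counts indexed references.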
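Wherever Hepatotoxicity (granulomatous hepatitis) is given: value is a count of indexed literature references reporting granulomatous liver disease confirmed by histopathology.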
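Wherever Hepatotoxicity (malignant tumour) is given: malignant tumour confirmed by histopathology, value gives the count of indexed literature references reporting it.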
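Wherever Hepatotoxicity (severe hepatitis) is given: human clinical data: severe hepatitis, meaning potentially life-threatening liver failure or clinically observed cases, the value counts how many indexed literature references report it.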
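Wherever Hepatotoxicity (steatosis) is given: steatosis confirmed by histopathology, value is the count of indexed references.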

For CO[C@@H]1O[C@H](CO)[C@H](O)[C@H](O[C@@H]2O[C@@H](C(=O)O)[C@@H](OC)[C@H](O)[C@H]2O)[C@H]1NC(C)=O, the “Hepatotoxicity (severe hepatitis)” value [1] was 0, the “Hepatotoxicity (cytolytic)” value [2] was 0 and the “Hepatotoxicity (chronic liver disease)” value [3] was 0. The “Hepatotoxicity (choleostasis)” value [4] was 0, the “Hepatotoxicity (malignant tumour)” value [5] was 0 and the “Hepatotoxicity (cirrhosis)” value [6] was 0. For the same molecule, the “Hepatotoxicity (acute)” value [7] was 0%, the “Hepatotoxicity (moderate)” value [8] was 0% and the “Hepatotoxicity (acute)” value [9] was 0. The “Hepatotoxicity (granulomatous hepatitis)” value [10] was 0, the “Hepatotoxicity (steatosis)” value [11] was 0 and the “Hepatotoxicity (benign tumour)” value [12] was 0. For the same molecule, the “Hepatotoxicity (moderate)” value [13] was 1 and the “Hepatotoxicity (association with vascular disease)” value [14] was 0.
In the case of CNC(=O)[C@@H](NC(=O)[C@H](CC(C)C)[C@H](O)C(=O)NO)C(C)(C)C, the “Hepatotoxicity (severe hepatitis)” value [1] is reported as 0, the “Hepatotoxicity (cytolytic)” value [2] is reported as 0 and the “Hepatotoxicity (chronic liver disease)” value [3] is reported as 0. For the same molecule, the “Hepatotoxicity (choleostasis)” value [4] was 0, the “Hepatotoxicity (malignant tumour)” value [5] was 0 and the “Hepatotoxicity (cirrhosis)” value [6] was 0. The “Hepatotoxicity (acute)” value [7] was 0%, the “Hepatotoxicity (moderate)” value [8] was 0% and the “Hepatotoxicity (acute)” value [9] was 0. The “Hepatotoxicity (granulomatous hepatitis)” value [10] was 0, the “Hepatotoxicity (steatosis)” value [11] was 0 and the “Hepatotoxicity (benign tumour)” value [12] was 0. The “Hepatotoxicity (moderate)” value [13] was 1 and the “Hepatotoxicity (association with vascular disease)” value [14] was 0.
In the case of CC(OC(=O)OC1CCCCC1)OC(=O)C1=C(CSc2nnnn2CCN(C)C)CS[C@@H]2[C@H](NC(=O)Cc3csc(N)n3)C(=O)N12 (some centres undefined), the “Hepatotoxicity (severe hepatitis)” value [1] is reported as 0, the “Hepatotoxicity (cytolytic)” value [2] is reported as 0 and the “Hepatotoxicity (chronic liver disease)” value [3] is reported as 0. For the same molecule, the “Hepatotoxicity (choleostasis)” value [4] was 0, the “Hepatotoxicity (malignant tumour)” value [5] was 0 and the “Hepatotoxicity (cirrhosis)” value [6] was 0. For the same molecule, the “Hepatotoxicity (acute)” value [7] was 0%, the “Hepatotoxicity (moderate)” value [8] was 28.6% and the “Hepatotoxicity (acute)” value [9] was 0. For the same molecule, the “Hepatotoxicity (granulomatous hepatitis)” value [10] was 0, the “Hepatotoxicity (steatosis)” value [11] was 0 and the “Hepatotoxicity (benign tumour)” value [12] was 0. For the same molecule, the “Hepatotoxicity (moderate)” value [13] was 25 and the “Hepatotoxicity (association with vascular disease)” value [14] was 0.
In the case of CCN1CCN(C(=O)N[C@@H](C(=O)N[C@@H]2C(=O)N3[C@@H]2SC(C)(C)[C@@H]3C(=O)O)c2ccccc2)C(=O)C1=O.C[C@]1(Cn2ccnn2)[C@H](C(=O)O)N2C(=O)C[C@H]2S1(=O)=O, the “Hepatotoxicity (severe hepatitis)” value [1] is reported as 0, the “Hepatotoxicity (cytolytic)” value [2] is reported as 0 and the “Hepatotoxicity (chronic liver disease)” value [3] is reported as 0. The “Hepatotoxicity (choleostasis)” value [4] was 0, the “Hepatotoxicity (malignant tumour)” value [5] was 0 and the “Hepatotoxicity (cirrhosis)” value [6] was 0. For the same molecule, the “Hepatotoxicity (acute)” value [7] was 0%, the “Hepatotoxicity (moderate)” value [8] was 33.3% and the “Hepatotoxicity (acute)” value [9] was 0. For the same molecule, the “Hepatotoxicity (granulomatous hepatitis)” value [10] was 0, the “Hepatotoxicity (steatosis)” value [11] was 0 and the “Hepatotoxicity (benign tumour)” value [12] was 0. For the same molecule, the “Hepatotoxicity (moderate)” value [13] was 46 and the “Hepatotoxicity (association with vascular disease)” value [14] was 0.
With CCOC(=O)[C@H](CCc1ccccc1)N[C@@H](C)C(=O)N(CC(=O)O)C1Cc2ccccc2C1 the “Hepatotoxicity (severe hepatitis)” value [1] was 0, the “Hepatotoxicity (cytolytic)” value [2] was 0 and the “Hepatotoxicity (chronic liver disease)” value [3] was 0. For the same molecule, the “Hepatotoxicity (choleostasis)” value [4] was 0, the “Hepatotoxicity (malignant tumour)” value [5] was 0 and the “Hepatotoxicity (cirrhosis)” value [6] was 0. For the same molecule, the “Hepatotoxicity (acute)” value [7] was 0%, the “Hepatotoxicity (moderate)” value [8] was 1.1% and the “Hepatotoxicity (acute)” value [9] was 0. The “Hepatotoxicity (granulomatous hepatitis)” value [10] was 0, the “Hepatotoxicity (steatosis)” value [11] was 0 and the “Hepatotoxicity (benign tumour)” value [12] was 0. The “Hepatotoxicity (moderate)” value [13] was 1 and the “Hepatotoxicity (association with vascular disease)” value [14] was 0.
With [Se] the “Hepatotoxicity (severe hepatitis)” value [1] was 0, the “Hepatotoxicity (cytolytic)” value [2] was 0 and the “Hepatotoxicity (chronic liver disease)” value [3] was 0. The “Hepatotoxicity (choleostasis)” value [4] was 0, the “Hepatotoxicity (malignant tumour)” value [5] was 0 and the “Hepatotoxicity (cirrhosis)” value [6] was 0. For the same molecule, the “Hepatotoxicity (acute)” value [7] was 0%, the “Hepatotoxicity (moderate)” value [8] was 0% and the “Hepatotoxicity (acute)” value [9] was 0. The “Hepatotoxicity (granulomatous hepatitis)” value [10] was 0, the “Hepatotoxicity (steatosis)” value [11] was 1 and the “Hepatotoxicity (benign tumour)” value [12] was 0. For the same molecule, the “Hepatotoxicity (moderate)” value [13] was 0 and the “Hepatotoxicity (association with vascular disease)” value [14] was 0.
